Assay results taken from patent US10420844B2, “Peptide pharmaceuticals” (Mederis Diabetes LLC, priority 2011, dated 2019).
Entries after “also recorded” stand apart in the source; their conditions may differ. Non-standard residues stand in square brackets, D forms with d. Residues, ends and D or L forms follow the SMILES beside them. *: point of attachment. GlcA(β-D,1-O-dodecyl) = CCCCCCCCCCCCO[C@@H]1O[C@H](C(=O)*)[C@@H](O)[C@H](O)[C@H]1O; GlcA(β1-O-octyl) = CCCCCCCCO[C@@H]1O[C@H](C(=O)*)[C@@H](O)[C@H](O)[C@H]1O; βGlcA(1-OMe) = CO[C@@H]1O[C@H](C(=O)*)[C@@H](O)[C@H](O)[C@H]1O; Phe(2,4,6-Me3) = Cc1cc(C)c(C[C@H](N)C(=O)O)c(C)c1; Dmt = Cc1cc(O)cc(C)c1C[C@H](N)C(=O)O; hArg = N=C(N)NCCCC[C@H](N)C(=O)O; Tic = O=C(O)[C@@H]1Cc2ccccc2CN1; Nle = CCCC[C@H](N)C(=O)O; Ac5c = NC1(C(=O)O)CCCC1; Aib = CC(C)(N)C(=O)O; NHBn = c1ccc(CN*)cc1

Key:
[1] = in water; cited from earlier work
[2] = blood PO4 and Ca levels in rats after a single sc injection; type: in vivo, rat; details: for blood calcium levels versus control (saline/vehicle): 80 (PTH, EU-232) or 320 (EU-232), all time points; for blood PO4 levels, 80 mcg groups: PO4 did not further diminish after 1 hour
Text: Following the method of Frolik, C.

[3] = target: T1, PTH1 (PTHR1), SaOS2 cells (Homo sapiens, UniProt Q03431); experiment: PTH1 cellular assay, cAMP generated in SaOS2 cells, Cerep; type: cell-based
T1 construct: host or cells: SaOS2 cells (as named in the result head)
T1 sequence (Q03431 27-593): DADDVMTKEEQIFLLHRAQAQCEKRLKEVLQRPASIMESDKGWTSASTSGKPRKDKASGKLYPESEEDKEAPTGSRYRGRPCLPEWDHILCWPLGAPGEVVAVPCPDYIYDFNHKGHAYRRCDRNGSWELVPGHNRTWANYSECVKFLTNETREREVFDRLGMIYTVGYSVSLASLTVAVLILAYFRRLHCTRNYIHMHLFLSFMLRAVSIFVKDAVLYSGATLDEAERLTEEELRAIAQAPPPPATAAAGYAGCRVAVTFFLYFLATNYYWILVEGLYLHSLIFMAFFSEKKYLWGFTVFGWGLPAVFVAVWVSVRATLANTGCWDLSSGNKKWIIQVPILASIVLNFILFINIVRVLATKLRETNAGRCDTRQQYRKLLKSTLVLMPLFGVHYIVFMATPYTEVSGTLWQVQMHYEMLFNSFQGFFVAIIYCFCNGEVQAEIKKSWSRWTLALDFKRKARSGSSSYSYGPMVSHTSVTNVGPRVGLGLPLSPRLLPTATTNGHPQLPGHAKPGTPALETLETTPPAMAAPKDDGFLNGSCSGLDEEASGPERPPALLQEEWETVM
Protocol: Compounds were weighed precisely in an amount of approximately 1 mg and assayed in standard cellular assays (cerep SA). The readout is the amount of cAMP generated in the cells treated with the test compounds, in either agonist or antagonist mode.
Compounds were dissolved in water and diluted in assay buffer containing 1% bovine serum albumin.

[4] = target: T2, mu opioid receptor (Homo sapiens, UniProt P35372); experiment: mu opioid receptor cellular assay (MOP, agonist and antagonist mode), cAMP readout, Cerep; type: cell-based
T2 construct: Cerep SA (contract research organization)
Protocol: Compounds were weighed precisely in an amount of approximately 2 mg and assayed in standard cellular assays by the contract research organization Cerep, Inc. (Pullman, Wash.) as executed at their subsidiary, Cerep SA (Le Bois l'Eveque, France). The readout is the amount of cAMP generated in the cells treated with the test compounds, in either agonist or antagonist mode. The assays used were the mu opioid receptor cellular assay (MOP in agonist and antagonist mode), the delta2 opioid receptor cellular assay (DOP in agonist and antagonist mode) and the kappa opioid receptor cellular assay (KOP in agonist and antagonist mode). The assays used are described in Wang, J. B., et al. (1994) FEBS Lett 338: 217-222, Law, P. Y. and Loh, H. H. (1993) Mol Pharmacol 43: 684-693, and Avidor-Reiss, T., et al. (1995) FEBS Lett 361: 70-74. The stimulant for the cells in the DOR antagonist assay was 3×10E-8M DPDPE, a well-accepted DOR literature standard.

[5] = MOP agonist mode and DOP antagonist mode

T2 sequence (P35372 whole entry): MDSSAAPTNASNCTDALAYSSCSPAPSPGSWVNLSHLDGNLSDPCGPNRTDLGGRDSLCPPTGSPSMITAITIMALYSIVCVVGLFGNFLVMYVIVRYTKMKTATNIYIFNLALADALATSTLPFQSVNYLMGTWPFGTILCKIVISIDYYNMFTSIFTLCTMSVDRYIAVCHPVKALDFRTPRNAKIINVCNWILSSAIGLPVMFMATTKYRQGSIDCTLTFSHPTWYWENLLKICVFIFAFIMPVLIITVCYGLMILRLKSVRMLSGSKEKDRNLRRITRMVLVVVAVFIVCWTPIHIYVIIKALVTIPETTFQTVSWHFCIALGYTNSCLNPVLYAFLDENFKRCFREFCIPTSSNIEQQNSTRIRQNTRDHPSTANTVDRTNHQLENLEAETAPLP

Molecule	CMC [1]	Characterization [4, 5]	other results
CCCCCCCCCCCCCCO[C@@H]1O[C@H](CO)[C@@H](O[C@@H]2O[C@@H](CO)[C@H](O)[C@@H](O)[C@@H]2O)[C@H](O)[C@H]1O (stereo in doubt) [Tetradecyl maltoside]	0.01 mM	–	–
CCCCCCCCCCCCCO[C@@H]1O[C@H](CO)[C@@H](OC2OC(CO)C(O)C(O)C2O)[C@H](O)[C@H]1O (stereo in doubt) [Tridecyl maltoside]	0.03 mM	–	–
CCCCCCCCCCO[C@@H]1O[C@H](CO)[C@@H](O[C@H]2O[C@H](CO)[C@@H](O)[C@H](O)[C@H]2O)[C@H](O)[C@H]1O [Decyl maltoside]	1.8 mM	–	–
CCCCCCCCCCCCO[C@@H]1O[C@H](CO)[C@@H](O[C@H]2O[C@H](CO)[C@@H](O)[C@H](O)[C@H]2O)[C@H](O)[C@H]1O [Dodecyl-β-D-maltoside]	0.17 mM	–	–
CCCCCCCCCCCCO[C@@H]1O[C@H](C(=O)NCCCC[C@H](NC(=O)C(C)(C)NC(=O)[C@H](CCC(N)=O)NC(=O)[C@@H](NC(=O)[C@H](Cc2c[nH]c3ccccc23)NC(=O)[C@H](CCCNC(=N)N)NC(=O)[C@H](C)NC(=O)[C@H](CCCCNC(=N)N)NC(=O)[C@H](CCC(N)=O)NC(=O)[C@H](Cc2c[nH]cn2)NC(=O)[C@H](CCCC)NC(=O)[C@H](CC(C)C)NC(=O)[C@H](CCC(N)=O)NC(=O)[C@@H](NC(=O)[C@H](CCC(=O)O)NC(=O)C(C)(C)NC(=O)[C@@H](NC(=O)C2(N)CCCC2)C(C)C)[C@@H](C)CC)[C@@H](C)CC)C(=O)NC(C)(C)C(N)=O)[C@@H](O)[C@H](O)[C@H]1O [EU-232] (H-[Ac5c]V[Aib]EIQL[Nle]HQ[hArg]ARWIQ[Aib]K(GlcA(β-D,1-O-dodecyl))[Aib]-NH2)	–	–	time of maximal statistically significant effect on blood phosphate ([2]; rat serum, sc dosing, last time point of the assay (FIG. 6)): 5 h; blood calcium levels versus control (saline/vehicle) ([2]; rat, sc): No groups were statistically significantly different from control; blood calcium at maximally effective dose and time point ([2]; rat, sc, G4 320, at 5 hrs): no elevation; blood PO4 levels, 80 mcg groups ([2]; rat, single sc injection): transient but not statistically significant decrease; maximal decrease of blood PO4 from time 0 hr. level ([2]; rat, single sc injection, seen at the 5 hr. time point, statistically significant): 25-35%; Characterization [3]: agonist; character of the cellular cAMP response [3]: super-agonistic response; also recorded: super-agonistic activity
CO[C@@H]1O[C@H](C(=O)NCCCC[C@H](NC(=O)[C@H](Cc2c(C)cc(C)cc2C)NC(=O)[C@@H]2CCCN2C(=O)[C@@H](N)Cc2c(C)cc(O)cc2C)C(N)=O)[C@@H](O)[C@H](O)[C@H]1O [EU-A101, Dmt-Pro-Tmp-Lys(C1-glucuronyl)-NH2] (H-[Dmt]P[Phe(2,4,6-Me3)]K(βGlcA(1-OMe))-NH2; N-terminus assumed)	–	–	Characterization ([4]; MOP agonist/antagonist modes): pure agonist
CCCCCCCCO[C@@H]1O[C@H](C(=O)NCCCC[C@H](NC(=O)[C@H](Cc2c(C)cc(C)cc2C)NC(=O)[C@@H]2CCCN2C(=O)[C@@H](N)Cc2c(C)cc(O)cc2C)C(N)=O)[C@@H](O)[C@H](O)[C@H]1O [EU-A102, 2′,6′-dimethyl-L-tyrosyl-prolyl-2′,4′,6′-trimethyl-L-phenylalanyl-Nε-(1′-octyl β-D-glucuronyl)-L-lysine amide] (H-[Dmt]P[Phe(2,4,6-Me3)]K(GlcA(β1-O-octyl))-NH2)	–	–	Characterization ([4]; MOP agonist/antagonist modes): partial agonist
CCCCCCCCCCCCO[C@@H]1O[C@H](C(=O)NCCCC[C@H](NC(=O)[C@H](Cc2c(C)cc(C)cc2C)NC(=O)[C@@H]2CCCN2C(=O)[C@@H](N)Cc2c(C)cc(O)cc2C)C(N)=O)[C@@H](O)[C@H](O)[C@H]1O [EU-A103, Dmt-Pro-Tmp-Lys(C12-glucuronyl)-NH2] (H-[Dmt]P[Phe(2,4,6-Me3)]K(GlcA(β-D,1-O-dodecyl))-NH2; N-terminus assumed)	–	–	Characterization ([4]; MOP agonist/antagonist modes): pure antagonist
CO[C@@H]1O[C@H](C(=O)NCCCC[C@@H](NC(=O)[C@@H](N)Cc2c(C)cc(O)cc2C)C(=O)N[C@@H](Cc2c(C)cc(C)cc2C)C(=O)N[C@@H](Cc2ccccc2)C(N)=O)[C@@H](O)[C@H](O)[C@H]1O [EU-A107, Dmt-D-Lys(C1-glucuronyl)-Tmp-Phe-NH2] (H-[Dmt][dK](βGlcA(1-OMe))[Phe(2,4,6-Me3)]F-NH2; N-terminus assumed)	–	–	Characterization ([4]; MOP agonist/antagonist modes): Agonist
CCCCCCCCO[C@@H]1O[C@H](C(=O)NCCCC[C@H](NC(=O)[C@H](Cc2ccccc2)NC(=O)[C@@H]2Cc3ccccc3CN2C(=O)[C@@H](N)Cc2c(C)cc(O)cc2C)C(N)=O)[C@@H](O)[C@H](O)[C@H]1O [EU-A180, Dmt-Tic-Phe-Lys(C8-glucuronyl)-NH2] (H-[Dmt][Tic]FK(GlcA(β1-O-octyl))-NH2)	–	Pure MOP Ag; pure DOP antag	–
CO[C@@H]1O[C@H](C(=O)NCCCC[C@H](NC(=O)[C@H](Cc2ccccc2)NC(=O)[C@H](Cc2ccccc2)NC(=O)[C@@H]2Cc3ccccc3CN2C(=O)[C@@H](N)Cc2c(C)cc(O)cc2C)C(N)=O)[C@@H](O)[C@H](O)[C@H]1O [EU-A189, 2′,6′-dimethyl-L-tyrosyl-L-1,2,3,4-tetrahydroisoquinoline-3-carbonyl-L-phenylalanyl-L-phenylalanys-Nε-(1′-methyl β-D-glucuronyl)-L-lysyl-amide]	–	Pure MOP Ag; pure DOP antag	–
CO[C@@H]1O[C@H](C(=O)NCCCC[C@H](NC(=O)[C@H](Cc2ccccc2)NC(=O)[C@@H]2Cc3ccccc3CN2C(=O)[C@@H](N)Cc2c(C)cc(O)cc2C)C(=O)NC(C)(C)C(N)=O)[C@@H](O)[C@H](O)[C@H]1O [EU-A600, Dmt-Tic-Phe-Lys(C1-glucuronyl)-Aib-NH2] (H-[Dmt][Tic]FK(βGlcA(1-OMe))[Aib]-NH2)	–	Pure MOP Ag; pure DOP antag	–
CO[C@@H]1O[C@H](C(=O)NCCCC[C@H](NC(=O)[C@H](Cc2ccccc2)NC(=O)[C@@H]2Cc3ccccc3CN2C(=O)[C@@H](N)Cc2c(C)cc(O)cc2C)C(=O)NCc2ccccc2)[C@@H](O)[C@H](O)[C@H]1O [EU-A620, Dmt-Tic-Phe-Lys(C1-glucuronyl)-NHCH2Ph] (H-[Dmt][Tic]FK(βGlcA(1-OMe))-NHBn)	–	Pure MOP Ag; pure DOP antag	–
CO[C@@H]1O[C@H](C(=O)NCCCC[C@@H](NC(=O)[C@H](Cc2ccccc2)NC(=O)[C@@H]2Cc3ccccc3CN2C(=O)[C@@H](N)Cc2c(C)cc(O)cc2C)C(=O)NCc2ccccc2)[C@@H](O)[C@H](O)[C@H]1O [EU-A639, Dmt-Tic-Phe-D-Lys(C1-glucuronyl)-NHCH2Ph] (H-[Dmt][Tic]F[dK](βGlcA(1-OMe))-NHBn; N-terminus assumed)	–	Pure MOP Ag; pure DOP antag	–
CCCCCCCCO[C@@H]1O[C@H](CO)[C@@H](O[C@H]2O[C@H](CO)[C@@H](O)[C@H](O)[C@H]2O)[C@H](O)[C@H]1O [Octyl maltoside]	19.5 mM	–	–
CC[C@H](C)[C@H](NC(=O)[C@H](CCC(=O)O)NC(=O)[C@H](CO)NC(=O)[C@@H](NC(=O)[C@@H](N)CO)C(C)C)C(=O)N[C@@H](CCC(N)=O)C(=O)N[C@@H](CC(C)C)C(=O)N[C@@H](CCSC)C(=O)N[C@@H](Cc1cnc[nH]1)C(=O)N[C@@H](CC(N)=O)C(=O)N[C@@H](CC(C)C)C(=O)NCC(=O)N[C@@H](CCCCN)C(=O)N[C@@H](Cc1cnc[nH]1)C(=O)N[C@@H](CC(C)C)C(=O)N[C@@H](CC(N)=O)C(=O)N[C@@H](CO)C(=O)N[C@@H](CCSC)C(=O)N[C@@H](CCC(=O)O)C(=O)N[C@@H](CCCN=C(N)N)C(=O)N[C@H](C(=O)N[C@@H](CCC(=O)O)C(=O)N[C@@H](Cc1c[nH]c2ccccc12)C(=O)N[C@@H](CC(C)C)C(=O)N[C@@H](CCCN=C(N)N)C(=O)N[C@@H](CCCCN)C(=O)N[C@@H](CCCCN)C(=O)N[C@@H](CC(C)C)C(=O)N[C@@H](CCC(N)=O)C(=O)N[C@@H](CC(=O)O)C(=O)N[C@H](C(=O)N[C@@H](Cc1cnc[nH]1)C(=O)N[C@@H](CC(N)=O)C(=O)N[C@@H](Cc1ccccc1)C(=O)O)C(C)C)C(C)C [PTH, reference compound]	–	–	blood calcium levels versus control (saline/vehicle) ([2]; rat, sc): No groups were statistically significantly different from control; blood PO4 levels, 80 mcg groups ([2]; rat, single sc injection): transient but not statistically significant decrease
Dmt-Tic-Phe-D-Lys(C1-glucuronyl)-Aib-NH2 [EU-A615]	–	Pure MOP Ag; pure DOP antag	–
Dmt-Tic-Phe-Phe-Lys(C12-glucuronyl)-NH2 [EU-A190]	–	Pure MOP Ag; pure DOP antag	–
Sucrose dodecanoate	0.3 mM	–	–
